TGI and GI50 data for 15 compounds are collected here from PubChem BioAssay (NCI).

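In this assay, cells in 96-well plates receive the compound at five concentrations for 48 hours. Endpoints are linearly interpolated between the surrounding concentrations. At the GI50, growth is halved. TGI is the concentration that stops growth completely.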 A value given as a limit tells only on which side of the number the result lay.

Among the test systems are OVCAR-4 ovarian; MALME-3M melanoma; NCI-H226 lung; A549 NSCLC; RXF 393 renal; U251 CNS; HCT-15 colon.
Holding throughout (assay): inhibition of tumour cell growth, NCI panel, 48 h

For the compound `Cc1ccc(N=C2N=C(N3CC(C)OC(C)C3)c3ccccc32)cc1` (stereo not drawn), the TGI with OVCAR-4 ovarian was 52.1 µM; in the test with MALME-3M melanoma, 99.4 µM; in the test on NCI-H226 lung it was more than 100 µM; in the test on A549 NSCLC it was more than 100 µM; with RXF 393 renal, 34.4 µM; with U251 CNS, more than 100 µM. The compound further came in with a TGI with HCT-15 colon of more than 100 µM.

As to `Cc1ccc(/C=C/C(=O)c2sc(-n3nc(-c4ccccc4)cc3-c3ccccc3)nc2C)cc1`, the TGI in the test on MALME-3M melanoma, with NCI-H226 lung, with A549 NSCLC, in the test on RXF 393 renal, in the test with U251 CNS and in the test with HCT-15 colon was more than 100 µM each time.

Regarding `O=C1C=C2CCCC2C(C(=O)O)(C(=O)O)C1` (stereo not drawn), the TGI in the test on OVCAR-4 ovarian, with MALME-3M melanoma, with A549 NSCLC, with RXF 393 renal, in the test with U251 CNS and with HCT-15 colon was more than 100 µM each time.

In the case of `O=C(N/C(=C\c1ccccc1O)c1nc2ccccc2[nH]1)c1ccccc1`, the TGI with OVCAR-4 ovarian, in the test on MALME-3M melanoma, with A549 NSCLC, in the test on RXF 393 renal, with U251 CNS and in the test on HCT-15 colon was more than 100 µM in each case.

Take `C[N+](C)(C)c1cc[c]([Sn]([c]2ccc([N+](C)(C)C)cc2)([c]2ccc([N+](C)(C)C)cc2)[c]2ccc([N+](C)(C)C)cc2)cc1`: the GI50 with OVCAR-4 ovarian, in the test with MALME-3M melanoma, with A549 NSCLC, with RXF 393 renal, in the test with U251 CNS and in the test on HCT-15 colon was more than 100 µM in each case. In addition, the TGI in the test on OVCAR-4 ovarian, in the test with MALME-3M melanoma, in the test with A549 NSCLC, in the test on RXF 393 renal, with U251 CNS and with HCT-15 colon was more than 100 µM in each case.

Take `O=C(CCC(=O)Nc1cccc(C(F)(F)F)c1)CC(=O)c1ccc2ccccc2c1`: the TGI in the test on OVCAR-4 ovarian, with MALME-3M melanoma, with NCI-H226 lung, in the test on A549 NSCLC, in the test with U251 CNS and in the test with HCT-15 colon was more than 100 µM throughout.

In the case of `CCc1cc2c(O)c(c1)Cc1cc(CC)cc(c1O)Cc1cc(CC)cc(c1O)Cc1cc(CC)cc(c1O)Cc1cc(CC)cc(c1O)Cc1cc(CC)cc(c1O)Cc1cc(CC)cc(c1O)C2`, the TGI with OVCAR-4 ovarian is more than 100 µM; with MALME-3M melanoma it was more than 100 µM; in the test on A549 NSCLC, more than 100 µM; with RXF 393 renal it was 43.3 µM; in the test with U251 CNS it was more than 100 µM; in the test on HCT-15 colon, more than 100 µM.

As to `C/C=C/C(=O)[O-].C/C=C/C(=O)[O-].N.N.N.N.[Co+3].[O-][Cl+3]([O-])([O-])[O-]`, the GI50 in the test with OVCAR-4 ovarian, in the test with MALME-3M melanoma, with A549 NSCLC, in the test with U251 CNS and with HCT-15 colon was more than 100 µM throughout. Further, the TGI in the test with OVCAR-4 ovarian, in the test on MALME-3M melanoma, in the test on A549 NSCLC, with U251 CNS and in the test with HCT-15 colon was more than 100 µM throughout.

As to `CCCCNC(=S)OCCC(C)CCCC(C)C` (stereo not drawn), the TGI in the test on OVCAR-4 ovarian, in the test on MALME-3M melanoma, in the test with A549 NSCLC, in the test with RXF 393 renal, in the test on U251 CNS and with HCT-15 colon was more than 100 µM in each case.

With `CC1=CP(=O)(c2ccccc2)C=C(C)C1=C(Cl)Cl` (stereo not drawn), the TGI was 26 µM with OVCAR-4 ovarian; 9.68 µM with NCI-H226 lung; more than 100 µM in the test on A549 NSCLC; 33.5 µM in the test with RXF 393 renal; 19.8 µM with U251 CNS.

As for `COc1cc(/C=C(\NC(=O)c2ccccc2)c2nc3ncncc3[nH]2)cc(OC)c1OC`, the TGI in the test on OVCAR-4 ovarian, with MALME-3M melanoma, in the test on A549 NSCLC, in the test on RXF 393 renal, in the test on U251 CNS and in the test with HCT-15 colon was more than 100 µM throughout.

For `CC(C)COC1Sc2ccccc2S1`, the TGI came to 53.4 µM with OVCAR-4 ovarian; 57.2 µM in the test with MALME-3M melanoma; 46.6 µM in the test with A549 NSCLC; 34.6 µM with RXF 393 renal; 35.9 µM in the test with U251 CNS; 66 µM in the test with HCT-15 colon.

On to `COc1ccc(/C=C/C(=O)c2c(-c3ccccc3)nn(C)c(=O)c2N2CCOCC2)cc1`, for which the TGI in the test with A549 NSCLC, in the test with RXF 393 renal, in the test with U251 CNS and in the test with HCT-15 colon was more than 100 µM each time.

On to `Nc1nc2c(-c3ccc([N+](=O)[O-])cc3)nnn2c2ccccc12`, for which the TGI in the test with OVCAR-4 ovarian was more than 100 µM; in the test with MALME-3M melanoma, more than 100 µM; in the test on NCI-H226 lung, more than 100 µM; in the test with A549 NSCLC, more than 100 µM; in the test on U251 CNS it was 66.4 µM; with HCT-15 colon, more than 100 µM.

`c1ccc2c(c1)Cc1c(Cc3csc4ccccc34)ccc3cccc-2c13`: the TGI in the test with OVCAR-4 ovarian, in the test on MALME-3M melanoma, in the test on A549 NSCLC, in the test on RXF 393 renal, in the test with U251 CNS and in the test on HCT-15 colon was more than 100 µM throughout.
